The NIST ThermoML archive (doi:10.1016/j.fluid.2015.09.034)
Numbers after ± are expanded uncertainties.

Conditions: Liquid, Chromatography

## O=C=O [carbon dioxide]
223.14 K
  vapor or sublimation pressure: 682.9 ± 53 kPa
298.17 K
  vapor or sublimation pressure: 6436.9 ± 500 kPa
303.16 K
  vapor or sublimation pressure: 7210.5 ± 560 kPa
